These compounds were tested against human full-length MKNK1 (Homo sapiens, UniProt Q9BUB5, T344D) (assay: MKNK1 kinase high ATP assay (TR-FRET)). Conditions: 2 mM ATP, 15 min preincubation with MKNK1, TR-FRET.
Type: biochemical
Procedure: MKNK1 Kinase High ATP Assay
MKNK1-inhibitory activity at high ATP of compounds of the present invention after their preincubation with MKNK1 was quantified employing the TR-FRET-based MKNK1 high ATP assay as described in the following paragraphs.
A recombinant fusion protein of Glutathione-S-Transferase (GST, N-terminally) and human full-length MKNK1 (amino acids 1-424 and T344D of accession number BAA 19885.1), expressed in insect cells using baculovirus expression system and purified via glutathione sepharose affinity chromatography, was purchased from Carna Biosciences (product no 02-145) and used as enzyme. As substrate for the kinase reaction the biotinylated peptide biotin-Ahx-IKKRKLTRRKSLKG (C-terminus in amide form) was used, which can be purchased e.g. from the company Biosyntan (Berlin-Buch, Germany).
For the assay 50 nl nL of a 100fold concentrated solution of the test compound in DMSO was pipetted into a black low volume 384well microtiter plate (Greiner Bio-One, Frickenhausen, Germany), 2 μL of a solution of MKNK1 in aqueous assay buffer [50 mM HEPES pH 7.5, 5 mM magnesium chloride, 1.0 mM dithiothreitol, 0.005% (v/v) Nonidet-P40 (Sigma)] was added and the mixture was incubated for 15 min at 22° C. to allow pre-binding of the test compounds to the enzyme before the start of the kinase reaction. Then the kinase reaction was started by the addition of 3 μL of a solution of adenosine-tri-phosphate (ATP, 3.3 mM=>final conc. in the 5 μL assay volume is 2 mM) and substrate (0.1 μM=>final conc. in the 5 μL assay volume is 0.06 μM) in assay buffer and the resulting mixture was incubated for a reaction time of 30 min at 22° C. The concentration of MKNK1 was adjusted depending of the activity of the enzyme lot and was chosen appropriate to have the assay in the linear range, typical concentrations were in the range of 0.003 μg/mL. The reaction was stopped by the addition of 5 μL of a solution of TR-FRET detection reagents (5 nM streptavidine-XL665 [Cisbio Bioassays, Codolet, France] and 1 nM anti-ribosomal protein S6 (pSer236)-antibody from Invitrogen [#44921G] and 1 nM LANCE EU-W1024 labeled ProteinG [Perkin-Elmer, product no. AD0071]) in an aqueous EDTA-solution (100 mM EDTA, 0.1% (w/v) bovine serum albumin in 50 mM HEPES pH 7.5).
The resulting mixture was incubated for 1 h at 22° C. to allow the formation of complex between the phosphorylated biotinylated peptide and the detection reagents. Subsequently the amount of phosphorylated substrate was evaluated by measurement of the resonance energy transfer from the Eu-chelate to the streptavidine-XL. Therefore, the fluorescence emissions at 620 nm and 665 nm after excitation at 350 nm were measured in a TR-FRET reader, e.g. a Rubystar (BMG Labtechnologies, Offenburg, Germany) or a Viewlux (Perkin-Elmer). The ratio of the emissions at 665 nm and at […] was taken as the measure for the amount of phosphorylated substrate. The data were normalised (enzyme reaction without inhibitor=0% inhibition, all other assay components but no enzyme=100% inhibition).

`CN[C@H](C)COc1ccc2ncc(-c3cc4c(OC)nccc4o3)n2n1` (stereo in doubt) [Example 3, 1-{[3-(4-Methoxyfuro[3,2-c]pyridin-2-yl)imidazo[1,2-b]pyridazin-6-yl]oxy}-N-methylpropan-2-amine] and `COc1nccc2oc(-c3cnc4ccc(OCC5CNC5)nn34)cc12` [Example 2, 6-(Azetidin-3-ylmethoxy)-3-(4-methoxyfuro[3,2-c]pyridin-2-yl)imidazo[1,2-b]-pyridazine] are within 1.5-fold of each other in IC50: 0.032 µM for the first, 0.031 µM for the second.

First: COc1nccc2oc(-c3cnc4ccc(O[C@@H](CNC5CC5)c5ccc(F)cc5)nn34)cc12 (stereo in doubt) [Example 7, N-[2-(4-Fluorophenyl)-2-{[3-(4-methoxyfuro[3,2-c]pyridin-2-yl)imidazo[1,2-b]-pyridazin-6-yl]oxy}ethyl]cyclopropanamine]
Second: COc1nccc2oc(-c3cnc4ccc(OC[C@@H]5CCCCN5)nn34)cc12 [Example 8, 3-(4-Methoxyfuro[3,2-c]pyridin-2-yl)-6-[(2S)-piperidin-2-ylmethoxy]imidazo-[1,2-b]pyridazine]
The IC50 of the first is 8.1-fold higher: 0.389 µM for the first, 0.048 µM for the second. The second is the more potent here.

Going from `COc1nccc2oc(-c3cnc4ccc(OC[C@H]5CNCCO5)nn34)cc12` [Example 1, 3-(4-Methoxyfuro[3,2-c]pyridin-2-yl)-6-[(2R)-morpholin-2-ylmethoxy]imidazo-[1,2-b]pyridazine] to `c1cc2oc(-c3cnc4ccc(OC[C@H]5CNCCO5)nn34)cc2cn1` [Example 4, 3-(Furo[3,2-c]pyridin-2-yl)-6-[(2R)-morpholin-2-ylmethoxy]imidazo[1,2-b]-pyridazine], the IC50 rises from 0.011 µM to 0.072 µM (6.5-fold). The first is the more potent here.

Compared with `c1cnc2cc(-c3cnc4ccc(OC[C@H]5CNCCO5)nn34)oc2c1` [Example 5, 3-(Furo[3,2-b]pyridin-2-yl)-6-[(2R)-morpholin-2-ylmethoxy]imidazo[1,2-b]-pyridazine], `c1cc2oc(-c3cnc4ccc(OCC[C@@H]5CCCN5)nn34)cc2cn1` [Example 6, 3-(Furo[3,2-c]pyridin-2-yl)-6-{2-[(2S)-pyrrolidin-2-yl]ethoxy}imidazo[1,2-b]-pyridazine] is 1.5-fold higher in IC50: 0.086 µM for the first, 0.132 µM for the second.
